In patent publication US9587266B2, “Mutant luciferases” (University of Massachusetts, priority 2011, dated 2017):
Where “and” joins values, the source holds several entries; their conditions need not be identical. Equal values may be shown once. Read-outs that look alike come from different tables or passages of the source.

What was measured:
R218K mutant luciferase = target: T1, R218K mutant luciferase (Photinus pyralis, UniProt P08659, R218K); assay type: biochemical
T1 construct: The full firefly (Photinus pyralis) luciferase gene was PCR amplified from pGL3 (Promega); GST (N, cleaved yes); made in house; host or cells: E. coli JM109
T1 sequence (P08659 whole entry R218K): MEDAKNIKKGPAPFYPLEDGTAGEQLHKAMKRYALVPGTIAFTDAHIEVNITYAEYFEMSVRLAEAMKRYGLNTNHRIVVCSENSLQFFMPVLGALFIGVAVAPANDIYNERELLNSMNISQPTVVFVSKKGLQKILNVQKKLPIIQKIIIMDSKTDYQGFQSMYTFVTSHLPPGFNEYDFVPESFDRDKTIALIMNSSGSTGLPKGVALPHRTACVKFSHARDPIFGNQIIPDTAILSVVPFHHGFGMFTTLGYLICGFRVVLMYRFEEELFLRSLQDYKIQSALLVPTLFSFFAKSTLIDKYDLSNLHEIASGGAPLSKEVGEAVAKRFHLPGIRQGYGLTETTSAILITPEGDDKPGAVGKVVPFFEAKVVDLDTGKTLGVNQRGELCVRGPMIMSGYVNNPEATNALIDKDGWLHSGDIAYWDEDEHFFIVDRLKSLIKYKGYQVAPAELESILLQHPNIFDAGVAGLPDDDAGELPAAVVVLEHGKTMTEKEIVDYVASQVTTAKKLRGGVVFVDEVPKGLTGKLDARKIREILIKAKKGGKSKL
Procedure: (§1) The PCR product was cloned into the BamH1 and NotI sites of pGEX6P-1 for bacterial expression. Mutant proteins were created using the Quickchange site-directed mutagenesis kit (Stratagene). Saturating mutagenesis was performed using the used the degenerate codon NNK at sites predicted to impact or alter substrate biding including F247, T251, L286, S347, R337, R218, Q338, Y340, A313, and I351 using the degenerate codon NNK.
(§2) Luminescence assays in 96-well plates were initiated by adding 30 μL 2× substrate in 20 mM Tris pH 7.6, 0.1 mM EDTA, 8 mM MgSO4, 4 mM ATP, and 1 mM TCEP to 30 μL of 20 nM purified luciferase in 20 mM Tris pH 7.6, 0.1 mM EDTA, 1 mM TCEP and 0.4 mg/mL BSA.

S347A mutant luciferase = target: T2, S347A mutant luciferase (Photinus pyralis, UniProt P08659, S347A); assay type: biochemical; conditions: purified protein
T2 construct: The full firefly (Photinus pyralis) luciferase gene was PCR amplified from pGL3 (Promega); GST (N, cleaved yes); made in house; host or cells: E. coli JM109
T2 sequence (P08659 whole entry S347A): as the sequence (P08659 whole entry R218K) above, with K218R, S347A counted along it
Procedure: as §1, §2

T251S luciferase = target: T3, T251S luciferase (Photinus pyralis, UniProt P08659, T251S); assay: Bioluminescence emission scan; assay type: biochemical
T3 construct: The full firefly (Photinus pyralis) luciferase gene was PCR amplified from pGL3 (Promega); GST (N, cleaved yes); made in house; host or cells: E. coli JM109
T3 sequence (P08659 whole entry T251S): as the sequence (P08659 whole entry R218K) above, with K218R, T251S counted along it
Procedure: (§3) Purified mutant luciferases were used in bioluminescence emission and burst kinetics scans.
(§4) Luciferase was rapidly injected into a cuvette containing substrate, and the emission from 400-800 nm was recorded in a SPEX FluoroMax-3 fluorimeter with closed excitation slits.

F247S luciferase = target: T4, F247S luciferase (Photinus pyralis, UniProt P08659, F247S); assay: Bioluminescence emission scan; assay type: biochemical
T4 construct: The full firefly (Photinus pyralis) luciferase gene was PCR amplified from pGL3 (Promega); GST (N, cleaved yes); made in house; host or cells: E. coli JM109
T4 sequence (P08659 whole entry F247S): as the sequence (P08659 whole entry R218K) above, with K218R, F247S counted along it
Procedure: as §3, §4

I351A luciferase = target: T5, I351A luciferase (Photinus pyralis, UniProt P08659, I351A); assay: Bioluminescence emission scan; assay type: biochemical
T5 construct: The full firefly (Photinus pyralis) luciferase gene was PCR amplified from pGL3 (Promega); GST (N, cleaved yes); made in house; host or cells: E. coli JM109
T5 sequence (P08659 whole entry I351A): as the sequence (P08659 whole entry R218K) above, with K218R, I351A counted along it
Procedure: as §3, §4

R218K luciferase = target: T6, R218K luciferase (Photinus pyralis, UniProt P08659, R218K); assay: Bioluminescence emission scan; assay type: biochemical
T6 construct: The full firefly (Photinus pyralis) luciferase gene was PCR amplified from pGL3 (Promega); GST (N, cleaved yes); made in house; host or cells: E. coli JM109
T6 sequence (P08659 whole entry R218K): as the sequence (P08659 whole entry R218K) above
Procedure: as §3, §4

L286M + S347A luciferase = target: T7, L286M + S347A luciferase (Photinus pyralis, UniProt P08659, L286M/S347A); assay: Bioluminescence emission scan; assay type: biochemical
T7 construct: The full firefly (Photinus pyralis) luciferase gene was PCR amplified from pGL3 (Promega); GST (N, cleaved yes); made in house; host or cells: E. coli JM109
T7 sequence (P08659 whole entry L286M/S347A): as the sequence (P08659 whole entry R218K) above, with K218R, L286M, S347A counted along it
Procedure: as §3, §4

T251N luciferase = target: T8, T251N luciferase (Photinus pyralis, UniProt P08659, T251N); assay: Bioluminescence emission scan; assay type: biochemical
T8 construct: The full firefly (Photinus pyralis) luciferase gene was PCR amplified from pGL3 (Promega); GST (N, cleaved yes); made in house; host or cells: E. coli JM109
T8 sequence (P08659 whole entry T251N): as the sequence (P08659 whole entry R218K) above, with K218R, T251N counted along it
Procedure: as §3, §4

F247R luciferase = target: T9, F247R luciferase (Photinus pyralis, UniProt P08659, F247R); assay: Bioluminescence emission scan; assay type: biochemical
T9 construct: The full firefly (Photinus pyralis) luciferase gene was PCR amplified from pGL3 (Promega); GST (N, cleaved yes); made in house; host or cells: E. coli JM109
T9 sequence (P08659 whole entry F247R): as the sequence (P08659 whole entry R218K) above, with K218R, F247R counted along it
Procedure: as §3, §4

L286M luciferase = target: T10, L286M luciferase (Photinus pyralis, UniProt P08659, L286M); assay: Bioluminescence emission scan; assay type: biochemical
T10 construct: The full firefly (Photinus pyralis) luciferase gene was PCR amplified from pGL3 (Promega); GST (N, cleaved yes); made in house; host or cells: E. coli JM109
T10 sequence (P08659 whole entry L286M): as the sequence (P08659 whole entry R218K) above, with K218R, L286M counted along it
Procedure: as §3, §4

L286Y luciferase = target: T11, L286Y luciferase (Photinus pyralis, UniProt P08659, L286Y); assay: Bioluminescence emission scan; assay type: biochemical
T11 construct: The full firefly (Photinus pyralis) luciferase gene was PCR amplified from pGL3 (Promega); GST (N, cleaved yes); made in house; host or cells: E. coli JM109
T11 sequence (P08659 whole entry L286Y): as the sequence (P08659 whole entry R218K) above, with K218R, L286Y counted along it
Procedure: as §3, §4

T251Q luciferase = target: T12, T251Q luciferase (Photinus pyralis, UniProt P08659, T251Q); assay: Bioluminescence emission scan; assay type: biochemical
T12 construct: The full firefly (Photinus pyralis) luciferase gene was PCR amplified from pGL3 (Promega); GST (N, cleaved yes); made in house; host or cells: E. coli JM109
T12 sequence (P08659 whole entry T251Q): as the sequence (P08659 whole entry R218K) above, with K218R, T251Q counted along it
Procedure: as §3, §4

F247A luciferase = target: T13, F247A luciferase (Photinus pyralis, UniProt P08659, F247A); assay: Bioluminescence emission scan; assay type: biochemical
T13 construct: The full firefly (Photinus pyralis) luciferase gene was PCR amplified from pGL3 (Promega); GST (N, cleaved yes); made in house; host or cells: E. coli JM109
T13 sequence (P08659 whole entry F247A): as the sequence (P08659 whole entry R218K) above, with K218R, F247A counted along it
Procedure: as §3, §4

T251S L286M luciferase = target: T14, T251S L286M luciferase (Photinus pyralis, UniProt P08659, L286M/T251S); assay: Bioluminescence emission scan; assay type: biochemical
T14 construct: The full firefly (Photinus pyralis) luciferase gene was PCR amplified from pGL3 (Promega); GST (N, cleaved yes); made in house; host or cells: E. coli JM109
T14 sequence (P08659 whole entry T251S/L286M): as the sequence (P08659 whole entry R218K) above, with K218R, T251S, L286M counted along it
Procedure: as §3, §4

T251S mutant luciferase = target: T15, T251S mutant luciferase (Photinus pyralis, UniProt P08659, T251S); assay: Titration assay with purified protein; assay type: biochemical
T15 construct: The full firefly (Photinus pyralis) luciferase gene was PCR amplified from pGL3 (Promega); GST (N, cleaved yes); made in house; host or cells: E. coli JM109
T15 sequence (P08659 whole entry T251S): as the sequence (P08659 whole entry R218K) above, with K218R, T251S counted along it
Procedure: as §1, §2

L286M mutant luciferase = target: T16, L286M mutant luciferase (Photinus pyralis, UniProt P08659, L286M); assay: Titration assay with purified protein; assay type: biochemical
T16 construct: The full firefly (Photinus pyralis) luciferase gene was PCR amplified from pGL3 (Promega); GST (N, cleaved yes); made in house; host or cells: E. coli JM109
T16 sequence (P08659 whole entry L286M): as the sequence (P08659 whole entry R218K) above, with K218R, L286M counted along it
Procedure: as §1, §2

WT luciferase = target: T17, WT luciferase (Photinus pyralis, UniProt P08659); assay: Titration assay with purified protein; assay type: biochemical
T17 construct: The full firefly (Photinus pyralis) luciferase gene was PCR amplified from pGL3 (Promega); GST (N, cleaved yes); made in house; host or cells: E. coli JM109
T17 sequence (P08659 whole entry): as the sequence (P08659 whole entry R218K) above, with K218R counted along it
Procedure: (§5) The PCR product was cloned into the BamH1 and NotI sites of pGEX6P-1 for bacterial expression. Mutant proteins were created using the Quickchange site-directed mutagenesis kit (Stratagene). Saturating mutagenesis was performed using the used the degenerate codon NNK at sites predicted to impact or alter substrate biding including F247, T251, L286, S347, R337, R218, Q338, Y340, A313, and I351 using the degenerate codon NNK. The point mutants S347A, L286A, A348G, E311A, I351A, A313G, R337A, H245A and L342A were made independently.
(§6) Luminescence assays in 96-well plates were initiated by adding 30 μL 2× substrate in 20 mM Tris pH 7.6, 0.1 mM EDTA, 8 mM MgSO4, 4 mM ATP, and 1 mM TCEP to 30 μL of 20 nM purified luciferase in 20 mM Tris pH 7.6, 0.1 mM EDTA, 1 mM TCEP and 0.4 mg/mL BSA. Titration assays were performed 3 minutes post-substrate addition in a Turner Veritas luminometer with final substrate concentrations ranging from 0.122-250 μM or 0.244-500 μM.

[1] = target: T18, S347A/L286M double mutant luciferase (Photinus pyralis, UniProt P08659, L286M/S347A); assay: Titration assay with purified protein; assay type: biochemical; conditions: sustained light emission
T18 construct: The full firefly (Photinus pyralis) luciferase gene was PCR amplified from pGL3 (Promega); GST (N, cleaved yes); made in house; host or cells: E. coli JM109
T18 sequence (P08659 whole entry L286M/S347A): as the sequence (P08659 whole entry R218K) above, with K218R, L286M, S347A counted along it
Procedure: as §5, §6

[2] = target: T19, R218K mutant luciferase in live CHO cells (Photinus pyralis, UniProt P08659, R218K); assay: Intact cell assay, transfected CHO cells; assay type: cell-based
T19 construct: The full firefly (Photinus pyralis) luciferase gene was PCR amplified from pGL3 (Promega); expressed in transfected cells; host or cells: CHO cells
T19 sequence (P08659 whole entry R218K): as the sequence (P08659 whole entry R218K) above
Procedure: (§7) The mutants were cloned into the BamHI-Not I site of pcDNA 3.1 and transfected into CHO cells for live and lysed cell experiments. CHO-cell transfections were performed using Lipofectamine 2000 in 96-well white tissue culture treated plates (Costar) for intact cell assays, or 6-well plates for lysed cell assays. For intact cells, 0.075 μg DNA/well was transfected. For lysed cells, 2.25 μg DNA/well was transfected and one full 6-well plate was transfected for each mutant. Assays were performed in triplicate 24 hours post-transfection.
(§8) Transfected CHO cells were washed with HBSS and overlaid with 60 μL substrate in HBSS.

[3] = target: T20, T251S mutant luciferase in live CHO cells (Photinus pyralis, UniProt P08659, T251S); assay: Intact cell assay, transfected CHO cells; assay type: cell-based
T20 construct: The full firefly (Photinus pyralis) luciferase gene was PCR amplified from pGL3 (Promega); expressed in transfected cells; host or cells: CHO cells
T20 sequence (P08659 whole entry T251S): as the sequence (P08659 whole entry R218K) above, with K218R, T251S counted along it
Procedure: as §7, §8

[4] = 3 minutes post-substrate addition, read-out: Apparent Km

O=C(O)[C@H]1CSC(c2nc3cc4c(cc3s2)NCC4)=N1 [CycLuc1]
Apparent Vmax (R218K mutant luciferase; R218K luciferase, purified protein): 134 ± 1.9 ×10^−5 cps | Km (R218K mutant luciferase; R218K luciferase, purified protein, 3 minutes post-substrate addition, read-out: Apparent Km): 1.8 µM and 1.79 µM | maximal sustained light emission as % of that of D-luciferin with WT luciferase (R218K mutant luciferase; R218K mutant): 12.5% | improvement in the maximal sustained emission (R218K mutant luciferase; R218K mutant relative to wild-type luciferase): 14 fold | Apparent Vmax (S347A mutant luciferase): 135 ± 0.8 ×10^−5 cps | Km (S347A mutant luciferase; [4]): 2.68 ± 0.07 µM | Wavelength at Max. Emission (T251S luciferase): 602 nm | Wavelength at Max. Emission (F247S luciferase): 607 nm | Wavelength at Max. Emission (I351A luciferase): 604 nm | Maximum Emission Wavelength of Selected Substrate (R218K luciferase): 609 nm | Maximum Emission Wavelength of Selected Substrate (R218K luciferase; listed as Cyc1): 605 nm | Maximum Emission Wavelength of Selected Substrate (L286M + S347A luciferase): 595 nm | Wavelength at Max. Emission (T251N luciferase): 604 nm | Wavelength at Max. Emission (F247R luciferase): 609 nm | Wavelength at Max. Emission (L286M luciferase): 591 nm | Wavelength at Max. Emission (L286Y luciferase): 604 nm | Wavelength at Max. Emission (T251Q luciferase): 612 nm | Wavelength at Max. Emission (F247A luciferase): 605 nm | Wavelength at Max. Emission (T251S L286M luciferase): 601 nm | Apparent Vmax (T251S mutant luciferase): 90 ± 0.9 ×10^−5 cps | Km (T251S mutant luciferase; [4]): 1.83 ± 0.09 µM | Apparent Vmax (L286M mutant luciferase): 60 ± 0.7 ×10^−5 cps | Km (L286M mutant luciferase; [4]): 0.46 ± 0.03 µM | Apparent Vmax (WT luciferase): 9.7 ± 0.1 ×10^−5 cps | Km (WT luciferase; [4]): 0.1 ± 0.01 µM | Vmax higher than wt [1]: 20 fold | substrate concentrations at which light output was superior to D-luciferin [2]: < 30 µM | substrate concentrations at which light output was superior to D-luciferin [3]: < 30 µM
